Key:
Bacterial membrane = conditions: cited from earlier work
Escherichia coli = conditions: cited from earlier work
[1] = Cyanuric acid and free available chlorine in lung homogenate after NaDCC DPI; conditions: administered as a DPI
Excerpt: Further, the so obtained NaDCC DPI was clinically assessed by determining the amount of cyanuric acid in the tissues.

coliforms and E. coli = conditions: 25 mg/ml, raw river water; cited from earlier work
Bacillus licheniformis = assay: Susceptibility of bacteria isolated from Garcinia cambogia extract to NaDCC; format: cell-based
Method: (§1) The bacteria (Bacillus licheniformis, and Bacillus paralicheniformis) and fungus (Aspergillus sps) isolated from the Salacia reticulata and bacteria Bacillus licheniformis isolated from Garcinia cambogia extract was tested for susceptibility for the sensitivity towards NaDCC.

COVID-19 virus = assay: Anti-COVID activity: inhibition of virus replication; conditions: Severe acute respiratory syndrome coronavirus 2, read-out: Inhibition of the virus replication
Aspergillus sps = assay: Susceptibility of fungus isolated from Salacia reticulata to NaDCC; format: cell-based
Method: as §1

mammalian cell vero6 = assay: Anti-COVID activity: cell survival (cytotoxicity); conditions: vero6 cells infected with COVID-19 virus
[2] = test system: 29 Gram-positive and 29 Gram-negative bacteria, as well as 66 fungi; conditions: independent of pH and temperature; cited from earlier work
[3] = test system: Bacillus licheniformis, and Bacillus paralicheniformis; assay: Susceptibility of bacteria isolated from Salacia reticulata to NaDCC; format: cell-based
Method: as §1

[4] = Stability of NaDCC solution (HDPE bottle); conditions: tables 6 to 9
[5] = test system: microbial load of Salacia extract; assay: % microbial load reduction in Salacia extract; conditions: for Total cfu/g: untreated 21000
Excerpt: Example 4: % Microbial Load Reduction in Ayurvedic Herbs and Extracts by Using Sodium Dichloroisocyanurate (NaDCC)

[6] = temperate and tropical climates; cited from earlier work
[7] = NaDCC 0.05% to 5% mixed with Salacia extract (inference)

| SMILES | Concentration below which bacterial membrane disruption and release of cell contents is not observed (Bacterial membrane) | HOCl concentration that completely inhibited cell division (Escherichia coli; Escherichia coli) [µM] | IC50 (Escherichia coli; read-out: HOCl required for 50% inhibition of bacterial growth, 5×10^8 Escherichia coli/ml) [µM] | Metabolism / tissue accumulation [1] | Reduction of viable bacteria (coliforms and E. coli) | Antibacterial activity (FIG. 2) (Bacillus licheniformis) | inhibition at 600 ppm (COVID-19 virus) [%] | Anti-fungal activity (FIG. 1) (Aspergillus sps) | Survival of cell (FIG. 3B) (mammalian cell vero6) | Antimicrobial activity [2] | Antibacterial activity (FIG. 1) [3] | Stability in acetic acid and cyanuric acid as a solution (inference) [4] | Total cfu/g ([5]; 0.02 g NaDCC in 10 g Salacia extract (0.2%), batch RDP/SR/073) [cfu/g] | Total cfu/g ([5]; 0.04 g NaDCC in 10 g Salacia extract (0.4%), batch RDP/SR/074) [cfu/g] | % microbial reduction ([5]; 0.2% of input extract, batch RDP/SR/073) [%] | % microbial reduction ([5]; 0.4% of input extract, batch RDP/SR/074) [%] | Reduction in bacterial counts [5, 7] [logs] | Reduction of bacterial load [5, 7] [%] | Shelf life [6] [years] |
| --- | --- | --- | --- | --- | --- | --- | --- | --- | --- | --- | --- | --- | --- | --- | --- | --- | --- | --- | --- |
| OCl [HOCl, Hypochlorous acid] | below 5 mM | 50 | 20 |  |  |  |  |  |  |  |  |  |  |  |  |  |  |  |  |
| O=c1[n-]c(=O)n(Cl)c(=O)n1Cl.[Na+] [NaDCC, Sodium 3,5-dichloro-2,4,6-trioxo-1,3,5-triazinan-1-ide] |  |  |  | metabolized fast with a short half-life and not accumulated in tissues | 1.8-2.8 logs | effective antibacterial activity | > 100 | anti-fungal activity | increase the survival of cell | effective | effective antibacterial activity | stable | <10 | <10 | >99 | >99 | 4 | 99.99 | 5 |
